# Source: ChEMBL document CHEMBL4145569, “Hypoxia-Protective Azaphilone Adducts from Peyronellaea glomerata” (J Nat Prod, 2018)
# Experiments:
# [1] = system: HUVEC; assay: (§1) Protection against hypoxia/reoxygenation-induced cell injury in HUVEC assessed as late apoptotic cells at 5 uM treated 1 hr prior to hypoxia induction for 12 hrs followed by compound redosing and subsequent reoxygenation for 3 hrs by annexin-V-FITC/propidium iodide staining based flow cytometric analysis (reference value: 22.8%); format: functional, Homo sapiens
# [2] = Antioxidant activity assessed as DPPH radical scavenging activity incubated for 30 mins under dark condition; format: functional
# [3] = system: HUVEC; assay: Protection against hypoxia/reoxygenation-induced cell injury in HUVEC assessed as cell viability at 5 uM treated 1 hr prior to hypoxia induction for 12 hrs followed by compound redosing and subsequent reoxygenation for 3 hrs by MTT assay (reference value: 35%); format: functional; conditions: Homo sapiens, read-out: Activity
# [4] = Antioxidant activity assessed as ABTS radical scavenging activity incubated for 6 mins under dark condition; format: functional
# [5] = system: HUVEC; assay: as §1, with “1” for “5”; format: functional, Homo sapiens
SMILES,Activity [1],EC50 [2],viability at 5 µM [3],EC50 [4],Activity [5]
CC[C@@H](C)[C@@]12OC(=O)[C@@]3(O)C[C@@H](O1)c1c(cc(O)c(C)c1O)[C@@]23C,9.4%,83.5 to 126 µM,70%,83.5 to 126 µM,9.8%
CC[C@@H](C)[C@]12OC(=O)[C@]3(O)C[C@H](O1)c1c(cc(O)c(C)c1O)[C@]23C,–,83.5 to 126 µM,–,83.5 to 126 µM,–
